Measured values from patent publication US8148391B2 (Cephalon, Inc., priority 2006, dated 2012).

How the values were obtained:
[1] = biological target: T1, baculovirus-expressed ALK (Homo sapiens, UniProt Q9UM73); assay: ALK Kinase Assay (ELISA-type, time-resolved fluorescence); type: biochemical; details: ALK kinase inhibition, 1 μM ATP; read-out: ALK Activity
T1 construct: host or cells: baculovirus expression system
Outline: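 Plates coated with phospholipase C-γ substrate (10 μg/mL in TBS); reaction started with 30 ng/ml ALK and run 15 min at 37° C. Phosphorylated substrate detected with Eu-N1-labeled PT66 antibody. IC50 from sigmoidal variable-slope fit of percent inhibition vs log concentration.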

[2] = biological target: T2, c-Met (cytoplasmic domain) (Homo sapiens, UniProt P08581); assay: c-Met Kinase Assay (same methods as for ALK, with modifications); type: biochemical; details: c-Met kinase inhibition, 1 μM ATP; read-out: cMet Activity
T2 construct: 10 ng/mL c-Met (cytoplasmic domain, Invitrogen Corporation #PV3143); purchased Invitrogen Corporation PV3143
Outline: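 Plates were coated with phospholipase C-γ substrate (10 μg/mL) in TBS, and the reaction was started with 10 ng/mL c-Met cytoplasmic domain and run 15 min at 37 °C. Phosphoproduct was detected with Eu-N1-labelled PT66 antibody. IC50 came from a variable-slope sigmoidal fit of percent inhibition vs log concentration.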

T2 sequence (P08581 956-1390 limits assumed): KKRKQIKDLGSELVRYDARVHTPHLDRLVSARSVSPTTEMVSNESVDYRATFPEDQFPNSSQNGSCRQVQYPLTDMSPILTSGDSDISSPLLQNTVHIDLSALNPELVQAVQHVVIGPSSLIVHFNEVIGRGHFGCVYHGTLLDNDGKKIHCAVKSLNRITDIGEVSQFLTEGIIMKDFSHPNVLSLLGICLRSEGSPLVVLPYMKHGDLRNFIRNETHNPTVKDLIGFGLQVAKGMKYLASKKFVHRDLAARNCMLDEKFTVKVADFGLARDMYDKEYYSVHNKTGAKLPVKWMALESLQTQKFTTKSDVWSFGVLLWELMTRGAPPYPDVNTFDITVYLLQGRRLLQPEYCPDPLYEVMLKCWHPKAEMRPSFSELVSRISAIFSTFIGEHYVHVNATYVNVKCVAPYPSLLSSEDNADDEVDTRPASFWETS
T1 sequence (Q9UM73 19-1620): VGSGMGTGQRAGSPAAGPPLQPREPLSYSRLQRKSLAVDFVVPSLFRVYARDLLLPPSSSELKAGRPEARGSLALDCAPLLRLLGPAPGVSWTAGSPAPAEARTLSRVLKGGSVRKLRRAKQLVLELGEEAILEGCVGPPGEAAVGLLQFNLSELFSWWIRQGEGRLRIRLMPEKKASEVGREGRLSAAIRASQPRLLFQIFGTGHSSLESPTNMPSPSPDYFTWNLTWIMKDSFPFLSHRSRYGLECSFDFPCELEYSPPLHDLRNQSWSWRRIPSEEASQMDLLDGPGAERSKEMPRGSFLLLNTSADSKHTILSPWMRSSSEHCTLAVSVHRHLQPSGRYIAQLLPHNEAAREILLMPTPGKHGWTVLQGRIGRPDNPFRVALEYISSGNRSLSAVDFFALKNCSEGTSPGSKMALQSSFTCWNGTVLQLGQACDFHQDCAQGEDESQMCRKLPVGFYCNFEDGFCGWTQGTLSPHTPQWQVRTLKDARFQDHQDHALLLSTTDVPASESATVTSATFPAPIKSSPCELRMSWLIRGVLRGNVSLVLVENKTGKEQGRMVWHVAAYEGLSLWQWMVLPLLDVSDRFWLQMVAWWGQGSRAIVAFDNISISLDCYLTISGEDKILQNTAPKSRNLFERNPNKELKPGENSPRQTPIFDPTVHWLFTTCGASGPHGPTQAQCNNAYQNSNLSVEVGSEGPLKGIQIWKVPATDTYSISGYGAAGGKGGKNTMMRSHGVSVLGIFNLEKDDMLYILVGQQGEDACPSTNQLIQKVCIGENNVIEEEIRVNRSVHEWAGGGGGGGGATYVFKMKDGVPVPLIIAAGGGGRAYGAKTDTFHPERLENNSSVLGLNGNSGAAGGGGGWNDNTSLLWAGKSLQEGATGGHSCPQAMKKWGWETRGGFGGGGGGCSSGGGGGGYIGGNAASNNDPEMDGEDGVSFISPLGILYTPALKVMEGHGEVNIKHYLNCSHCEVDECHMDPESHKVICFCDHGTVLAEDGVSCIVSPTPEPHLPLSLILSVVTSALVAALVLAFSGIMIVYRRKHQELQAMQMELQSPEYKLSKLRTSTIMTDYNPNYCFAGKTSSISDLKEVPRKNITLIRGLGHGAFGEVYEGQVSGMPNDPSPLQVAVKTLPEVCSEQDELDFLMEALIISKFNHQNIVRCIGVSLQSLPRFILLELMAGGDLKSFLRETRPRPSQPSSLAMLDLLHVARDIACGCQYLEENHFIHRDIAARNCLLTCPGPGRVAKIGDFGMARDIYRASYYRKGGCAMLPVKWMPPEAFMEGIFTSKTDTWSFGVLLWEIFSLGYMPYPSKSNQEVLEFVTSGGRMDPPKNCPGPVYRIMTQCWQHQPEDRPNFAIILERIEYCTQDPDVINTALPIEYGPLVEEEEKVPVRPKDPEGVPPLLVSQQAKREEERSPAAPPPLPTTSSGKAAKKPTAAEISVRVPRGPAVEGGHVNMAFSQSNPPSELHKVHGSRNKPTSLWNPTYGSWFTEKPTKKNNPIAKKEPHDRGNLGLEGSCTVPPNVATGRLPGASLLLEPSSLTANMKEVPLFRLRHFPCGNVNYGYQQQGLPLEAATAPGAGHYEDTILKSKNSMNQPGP

CCN1CCc2ccc(Nc3ncc(Cl)c(N[C@H]4CCCC[C@@H]4C(N)=O)n3)cc2CC1 [Example 1502, (1S,2S)-2-[5-Chloro-2-(3-ethyl-2,3,4,5-tetrahydro-1H-enzo[d]azepin-7-ylamino)-pyrimidin-4-ylamino]-cyclohexanecarboxylic acid amide] gave an IC50 [1] of 100 to 1000 nM and an IC50 [2] greater than 10000 nM.

COc1cc2c(cc1Nc1ncc(Cl)c(N[C@@H]3CCCC[C@H]3NS(C)(=O)=O)n1)CCOC(=O)N2C [Example 1503, N-{(1R,2R)-2-[5-Chloro-2-(3-methoxy-5-methyl-6-oxo-5,6,8,9-tetrahydro-7-oxa-5-aza-benzocyclohepten-2-ylamino)-pyrimidin-4-ylamino]-cyclohexyl}-methanesulfonamide] showed an IC50 [1] of less than 100 nM and an IC50 [2] greater than 10000 nM.

With CNC(=O)c1ccccc1Nc1nc(Nc2cc3c(cc2OC)N(C)C(=O)OCC3)ncc1Cl [Example 1505, 2-[5-Chloro-2-(3-methoxy-5-methyl-6-oxo-5,6,8,9-tetrahydro-7-oxa-5-aza-benzocyclohepten-2-ylamino)-pyrimidin-4-ylamino]-N-methyl-benzamide] the IC50 [1] was less than 100 nM and the IC50 [2] was 1000 to 10000 nM.

COc1cc2c(cc1Nc1ncc(Cl)c(Nc3ccc(N4CCOCC4)cc3OC)n1)CCOC(=O)N2C [Example 1506, 2-[5-Chloro-4-(2-methoxy-4-morpholin-4-yl-phenylamino)-pyrimidin-2-ylamino]-3-methoxy-5-methyl-8,9-dihydro-5H-7-oxa-5-aza-benzocyclohepten-6-one] was tested, and the IC50 [1] was less than 100 nM and the IC50 [2] was greater than 10000 nM.

CNC(=O)c1ccccc1Nc1nc(Nc2cc3c(cc2OC)N(C)C(=O)OCC3)ncc1Br [Example 1507, 2-[5-Bromo-2-(3-methoxy-5-methyl-6-oxo-5,6,8,9-tetrahydro-7-oxa-5-aza-benzocyclohepten-2-ylamino)-pyrimidin-4-ylamino]-N-methyl-benzamide] was tested, and the IC50 [1] was less than 100 nM and the IC50 [2] was 100 to 1000 nM.

For COc1cc2c(cc1Nc1ncc(Cl)c(Nc3ccccc3OC)n1)CCOC(=O)N2C [Example 1508, 2-[5-Chloro-4-(2-methoxy-phenylamino)-pyrimidin-2-ylamino]-3-methoxy-5-methyl-8,9-dihydro-5H-7-oxa-5-aza-benzocyclohepten-6-one], the IC50 [1] was less than 100 nM and the IC50 [2] was greater than 10000 nM.

COc1cc2c(cc1Nc1ncc(Cl)c(N[C@@H]3[C@H](C(N)=O)[C@H]4C=C[C@@H]3C4)n1)CCOC(=O)N2C [Example 1509, (1R,2R,3S,4S)-3-[5-Chloro-2-(3-methoxy-5-methyl-6-oxo-5,6,8,9-tetrahydro-7-oxa-5-aza-benzocyclohepten-2-ylamino)-pyrimidin-4-ylamino]-bicyclo[2.2.1]hept-5-ene-2-carboxylic acid amide] showed an IC50 [1] of less than 100 nM and an IC50 [2] greater than 10000 nM.

Work on COc1cc2c(cc1Nc1ncc(Cl)c(Nc3cccc(OCC#N)c3)n1)CCOC(=O)N2C [Example 1510, {3-[5-Chloro-2-(3-methoxy-5-methyl-6-oxo-5,6,8,9-tetrahydro-7-oxa-5-aza-benzocyclohepten-2-ylamino)-pyrimidin-4-ylamino]-phenoxy}-acetonitrile] yielded an IC50 [1] of less than 100 nM and an IC50 [2] greater than 10000 nM.

CNC(=O)c1ccccc1Nc1nc(Nc2cc3c(cc2OC)CCOC(=O)N3C)ncc1Cl [Example 1511, 2-[5-Chloro-2-(2-methoxy-5-methyl-6-oxo-5,6,8,9-tetrahydro-7-oxa-5-aza-benzocyclohepten-3-ylamino)-pyrimidin-4-ylamino]-N-methyl-benzamide] gave an IC50 [1] of less than 100 nM and an IC50 [2] of 1000 to 10000 nM.

In the case of CNC(=O)c1ccccc1Nc1nc(Nc2cc3c(cc2OC)CCOC(=O)N3C)ncc1Br [Example 1512, 2-[5-Bromo-2-(2-methoxy-5-methyl-6-oxo-5,6,8,9-tetrahydro-7-oxa-5-aza-benzocyclohepten-3-ylamino)-pyrimidin-4-ylamino]-N-methyl-benzamide], the IC50 [1] is reported as less than 100 nM and the IC50 [2] is reported as 1000 to 10000 nM.

CNC(=O)c1ccccc1Nc1nc(Nc2cc3c(cc2OC)N(C)C(=O)OCC3)ncc1C(F)(F)F [Example 1513, 2-[2-(3-Methoxy-5-methyl-6-oxo-5,6,8,9-tetrahydro-7-oxa-5-aza-benzocyclohepten-2-ylamino)-5-trifluoromethyl-pyrimidin-4-ylamino]-N-methyl-benzamide] was tested, and the IC50 [1] was less than 100 nM and the IC50 [2] was 100 to 1000 nM.

COc1cc2c(cc1Nc1ncc(C(F)(F)F)c(Nc3ccc(N4CCOCC4)cc3OC)n1)CCOC(=O)N2C [Example 1514, 3-Methoxy-2-[4-(2-methoxy-4-morpholin-4-yl-phenylamino)-5-trifluoromethyl-pyrimidin-2-ylamino]-5-methyl-8,9-dihydro-5H-7-oxa-5-aza-benzocyclohepten-6-one] showed an IC50 [1] of less than 100 nM and an IC50 [2] greater than 10000 nM.

In the case of COc1cc2c(cc1Nc1ncc(Cl)c(Nc3ccccc3OCC#N)n1)CCOC(=O)N2C [Example 1516, {2-[5-Chloro-2-(3-methoxy-5-methyl-6-oxo-5,6,8,9-tetrahydro-7-oxa-5-aza-benzocyclohepten-2-ylamino)-pyrimidin-4-ylamino]-phenoxy}-acetonitrile], the IC50 [1] is reported as less than 100 nM and the IC50 [2] is reported as 1000 to 10000 nM.

For CNC(=O)c1ccccc1Nc1nc(Nc2c(OC)ccc3c2CCOC(=O)N3C)ncc1Cl [Example 1517, 2-[5-Chloro-2-(2-methoxy-5-methyl-6-oxo-5,6,8,9-tetrahydro-7-oxa-5-aza-benzocyclohepten-1-ylamino)-pyrimidin-4-ylamino]-N-methyl-benzamide], the IC50 [1] was 1000 to 10000 nM and the IC50 [2] was greater than 10000 nM.

Work on COc1cc2c(cc1Nc1ncc(C(F)(F)F)c(Nc3ccc(N4CCOCC4)cc3OC)n1)N(C)C(=O)OCC2 [Example 1518, 2-Methoxy-3-[4-(2-methoxy-4-morpholin-4-yl-phenylamino)-5-trifluoromethyl-pyrimidin-2-ylamino]-5-methyl-8,9-dihydro-5H-7-oxa-5-aza-benzocyclohepten-6-one] yielded an IC50 [1] of 100 to 1000 nM and an IC50 [2] of 1000 to 10000 nM.

CCN1C(=O)CCC(C)(C)c2ccc(Nc3ncc(Cl)c(Nc4c(F)cccc4OCC#N)n3)cc21 [Example 1520, {2-[5-Chloro-2-(1-ethyl-5,5-dimethyl-2-oxo-2,3,4,5-tetrahydro-1H-1-benzazepin-8-ylamino)-pyrimidin-4-ylamino]-3-fluoro-phenoxy}-acetonitrile] was tested, and the IC50 [1] was less than 100 nM and the IC50 [2] was less than 100 nM.

COCCN1C(=O)CCC(C)(C)c2ccc(Nc3ncc(Cl)c(Nc4c(F)cccc4OCC#N)n3)cc21 [Example 1521, (2-{5-Chloro-2-[1-(2-methoxy-ethyl)-5,5-dimethyl-2-oxo-2,3,4,5-tetrahydro-1H-1-benzazepin-8-ylamino]-pyrimidin-4-ylamino}-3-fluoro-phenoxy)-acetonitrile] gave an IC50 [1] of less than 100 nM and an IC50 [2] of less than 100 nM.

With COc1cc2c(cc1Nc1ncc(Cl)c(Nc3ccccc3S(=O)(=O)N(C)C)n1)CCN(CCN1CCOCC1)CC2 [Example 1522, 2-{5-Chloro-2-[8-methoxy-3-(2-morpholin-4-yl-ethyl)-2,3,4,5-tetrahydro-1H-3-benzazepin-7-ylamino]-pyrimidin-4-ylamino}-N,N-dimethyl-benzenesulfonamide] the IC50 [1] was less than 100 nM and the IC50 [2] was 1000 to 10000 nM.

For COc1cc2c(cc1Nc1ncc(Cl)c(Nc3ccc(N4CCOCC4)cc3OC)n1)CCN(CCN1CCOCC1)CC2 [Example 1523, 5-Chloro-N(2)-[8-methoxy-3-(2-morpholin-4-yl-ethyl)-2,3,4,5-tetrahydro-1H-3-benzazepin-7-yl]-N(4)-(2-methoxy-4-morpholin-4-yl-phenyl)-pyrimidine-2,4-diamine], the IC50 [1] was less than 100 nM and the IC50 [2] was greater than 10000 nM.

In the case of CNC(=O)c1ccccc1Nc1nc(Nc2cc3c(cc2OC)CCN(CCN2CCOCC2)CC3)ncc1Cl [Example 1524, 2-{5-Chloro-2-[8-methoxy-3-(2-morpholin-4-yl-ethyl)-2,3,4,5-tetrahydro-1H-3-benzazepin-7-ylamino]-pyrimidin-4-ylamino}-N-methyl-benzamide], the IC50 [1] is reported as less than 100 nM and the IC50 [2] is reported as 1000 to 10000 nM.

With COc1cc2c(cc1Nc1ncc(Cl)c(Nc3ccccc3S(=O)(=O)N(C)C)n1)CCN(CC(=O)N1CCOCC1)CC2 [Example 1525, 2-{5-Chloro-2-[8-methoxy-3-(2-morpholin-4-yl-2-oxo-ethyl)-2,3,4,5-tetrahydro-1H-3-benzazepin-7-ylamino]-pyrimidin-4-ylamino}-N,N-dimethyl-benzenesulfonamide] the IC50 [1] was less than 100 nM and the IC50 [2] was greater than 10000 nM.

For COc1cc2c(cc1Nc1ncc(Cl)c(Nc3ccc(N4CCOCC4)cc3OC)n1)CCN(CC(=O)N1CCOCC1)CC2 [Example 1526, 2-{7-[5-Chloro-4-(2-methoxy-4-morpholin-4-yl-phenylamino)-pyrimidin-2-ylamino]-8-methoxy-1,2,4,5-tetrahydro-3-benzazepin-3-yl}-1-morpholin-4-yl-ethanone], the IC50 [1] was less than 100 nM and the IC50 [2] was greater than 10000 nM.

In the case of COc1cc2c(cc1Nc1ncc(Cl)c(N[C@H]3[C@@H](C(N)=O)[C@@H]4C=C[C@H]3C4)n1)CCN(CC(=O)N1CCOCC1)CC2 [Example 1527, (1S,2S,3R,4R)-3-{5-Chloro-2-[8-methoxy-3-(2-morpholin-4-yl-2-oxo-ethyl)-2,3,4,5-tetrahydro-1H-3-benzazepin-7-ylamino]-pyrimidin-4-ylamino}-bicyclo[2.2.1]hept-5-ene-2-carboxylic acid amide], the IC50 [1] is reported as less than 100 nM and the IC50 [2] is reported as greater than 10000 nM.

In the case of COc1cc2c(cc1Nc1ncc(Cl)c(N[C@@H]3CCCC[C@H]3NS(C)(=O)=O)n1)CCN(CC(=O)N1CCOCC1)CC2 [Example 1528, N-((1R,2R)-2-{5-Chloro-2-[8-methoxy-3-(2-morpholin-4-yl-2-oxo-ethyl)-2,3,4,5-tetrahydro-1H-3-benzazepin-7-ylamino]-pyrimidin-4-ylamino}-cyclohexyl)-methanesulfonamide], the IC50 [1] is reported as less than 100 nM and the IC50 [2] is reported as greater than 10000 nM.
